Data: US6342516B1, “Phenylazole compounds, process for producing the same and drugs for hyperlipemia” (Nippon Soda Co., Ltd., priority 1998, dated 2002)

Experiments:
cholesterol-fed hamsters = test: Effect on serum lipids of cholesterol-fed hamsters (serum total cholesterol and triglyceride reduction rate); format: in vivo; details: cholesterol-fed Syrian hamsters, oral once a day for 5 days, dose 25 mg/kg
Protocol: Pharmacological Test Example 1: Effect on serum lipids of cholesterol-fed hamsters
Syrian hamsters (Std:Syrian, Male, 4 weeks old) were freely fed with chow containing 1% cholesterol and 10% coconut oil for 3 weeks ad libitum.
At the last week of feeding, each of the test compounds was dissolved or suspended in either 0.1% hydrochloric acid solution or 1% polyethylene-hydrogenated castor oil (NIKKOL HCO-60) solution and was orally administrated to hamsters once a day for 5 days. For the hamsters of the control group, only the solvent was orally administered. Then, blood was collected from the abdominal vein under the condition of anesthesia with pentobarbital at 2-4 hours after the last administration, and the serum in the blood was separated. The serum total cholesterol value and the serum triglyceride value were determined by using autobiochemical analyzer with analizing kits, and reduction rate of the serum lipids was determined according to the equation indicated below based on the analyzed values for respective hamster groups.
Serum lipids reduction rate (%)=(Amount of serum lipids of the control group−Amount of serum lipids of the group administrated with the test compound)/Amount of serum lipids of the control group×100

[1] = test system: Lipid peroxidation activity in rat liver microsome; test: Effect on lipid peroxidation in vitro (rat liver microsome, thiobarbituric acid method); format: biochemical; details: rat liver microsomes, 500 μM cystein and 5 μM ferrous(II) sulfate, malonaldehyde by thiobarbituric acid method; read-out: Lipid Antiperoxidation Activity 50% Inhibition Concentration (IC50)
Protocol: Pharmacological Test Example 2: Effect on lipid peroxidation in vitro
Lipid peroxidation activity in rat liver microsome was determined according to the method of Malvy et al. (Malvy et al., Biochemical and Biophysical Research Communications, 95, 734-737 (1980)). More particularly, 500 μM cystein and 5 μM ferrous(II) sulfate were incubated with rat liver microsomes, and the amount of malonaldehyde produced due to the decomposition of lipid peroxide was determined according to thiobarbituric acid method. The concentration of the compounds required to inhibit the formation of lipid peroxide by 50% (IC50) was calculated.

[2] = test system: carbon tetrachloride induced liver damage model in rats; test: Carbon tetrachloride induced liver damage model in rats (lipid peroxide in liver; serum GOT, GPT); format: in vivo, rats (SD-strain, male); details: CCl4: 0.5 ml/kg, dose 100 mg/kg oral 3 times
Protocol: Pharmacological Test Example 3: Effect on lipid peroxidation […] Effect of the compounds of the present invention on the produced lipid peroxide in liver was examined on carbon tetrachloride induced liver damage model in rats. Briefly, providing 5 SD-strain male rats (6 weeks old) for each group, carbon tetrachloride at the rate of 1 ml/kg or 2 ml/kg (0.5 ml/kg or 1 ml/kg based on carbon tetrachloride) was orally administered to the rats together with the equivalent dose of olive oil. At 24 hours after the administration of carbon tetrachloride, their livers were excised, and the produced amount of lipid peroxide in liver was determined by thiobarbituric acid method according to Uchiyama's method (Uchiyama, M., et al., Analytical biochemistry, 86, 271-278 (1978)). In parallel, as the indicator for liver disorder due to carbon tetrachloride, serum enzyme activity (GOT, GPT) was measured. Then each of the test compounds, which was either dissolved or suspended in either 0.1% hydrochloric acid solution or olive oil, was orally administered to the rats 3 times at 1 before and, 3 and 6 hours after the administration of carbon tetrachloride. For the rats of normal group and control groups, the solvent was orally administered. Based on the measured values for each groups, the inhibitory rate of producing peroxidized lipids and the inhibitory rate of causing liver disorder were calculated according to the following equation. Inhibitory rate of producing lipid peroxide (%)=[1−(Produced amount of lipid peroxide in the test compound group−Produced amount of lipid peroxide in the normal rat group)/(Produced amount of lipid peroxide in the control group−Produced amount of lipid peroxide in the normal rat group)]×100 Liver disorder preventing rate (%)=[1−(GOT amount of GPT amount in the test compound group−GOT amount or GPT amount in the normal rat group)/(GOT amount or GPT amount in the control group−GOT amount or GPT amount in the normal rat group)]×100 The results are presented in Table 8.

rats (male SD-strain) = details: rat, in vivo, 100 mg/kg/day
Protocol: Pharmacological Test Example 4: Repeated Oral Administration Toxicity
The Compound with No. 3-1 was suspended in 1% polyethylene-hardened castor oil (NIKKOL HCO-60) solution, and the suspension was orally administered to rats (male SD-strain), 6 rats per group, at a rate of 100 mg/kg/day for 7 days.

Cc1c(C)c2c(c(C)c1O)CCC(C)(C(=O)Nc1ccc(-n3ccnc3)cc1)O2 (racemic) [Compound No. 3-1, (±)-(6-Hydroxy-2,5,7,8-tetramethylchroman-2-yl)-N-[4-(imidazol-1-yl)phenyl]carboxamide]
Serum lipids reduction rate comparing to Control group (%), Means of 3 animals: Total cholesterol (cholesterol-fed hamsters): 40%
Serum lipids reduction rate comparing to Control group (%), Means of 3 animals: Triglyceride (cholesterol-fed hamsters): 62%
IC50 [1]: 2.7 µM
Antioxidation Activity of Lipid: Mass of lipid peroxide ([2]; liver at 24 hours): 2.361 A535nm/g lever
Antioxidation Activity of Lipid: Prevention Rate ([2]; liver at 24 hours): 96%
Preventive Activity on Liver Disorder: GOT ([2]; serum): 137 IU/L
Preventive Activity on Liver Disorder: GOT Prevention Rate ([2]; serum): 100%
Preventive Activity on Liver Disorder: GPT ([2]; serum): 61 IU/L
Preventive Activity on Liver Disorder: GPT Prevention Rate ([2]; serum): 86%
Repeated oral administration toxicity (death, toxicological symptoms) (rats (male SD-strain)): neither death nor any toxicological symptoms were observed
